Assays:
[1] = system: primary murine skeletal myocytes; assay: TAG accumulation in primary murine skeletal myocytes; format: cell-based; details: Mus musculus; primary murine skeletal myocytes; read-out: Activity Score (IC50), triacylglyceride (TAG) accumulation
human skeletal myotubes = assay: Triglyceride accumulation in oleate-loaded human skeletal myotubes; format: cell-based
Method: Human skeletal myotubes were differentiated for 8 days. On day 7, 100 μM of oleic acid complexed to fatty acid-free BSA was added to the cells with the indicated concentration of test compound for 24 hours. Following incubation with oleate and compound, cells were formaldehyde fixed and stained with AdipoRed™ (Lonza). Triglyceride accumulation was measured using signal intensity at excitation 540/emission 590 nm (Bio-Tek Instruments, Inc.). Dose response curves were generated in Prism 6 (GraphPad Software). EC50 values were calculated using non-linear regression analysis. For biochemical measurement of triglyceride, human skeletal myotubes were incubated with oleate-BSA and test compound as described above. After 24 hour incubation, cells were collected with a lysis buffer containing 0.1% IGEPAL CA-630 (Sigma-Aldrich) in PBS. The harvested cells were sonicated for 5 seconds and then centrifuged at 10,000×g for 10 minutes at 4° C. The supernatant was removed and stored on ice. TAG levels were quantified using Infinity™ Triglycerides Liquid Stable Reagent (Thermo Scientific), following the manufacturer's instructions for colorimetric assay.
Student's t-test, Mann Whitney test, one-way ANOVA with Bonferroni post hoc test, or two-way ANOVA with Tukey post hoc test was performed to determine statistical significance as indicated. […]

[2] = Plasma concentration in high fat diet mice; format: in vivo; details: male, C57BL/6J, mouse, sc, 4 hours following the final dose, 50 mg/kg s.c. once daily for 7 days
Method: (§1) All animal studies were performed in accordance with the National Institute of Health guidelines for humane treatment of animals and approved by the IACUC of the Sanford Burnham Prebys Medical Discovery Institute at Lake Nona. Six week old male C57BL/6J mice were obtained from Jackson Laboratory (stock number 000664) and acclimated for 1 week prior to study. Mice were maintained on standard chow or a 60% high fat diet (Research Diets, USA) for 8 weeks. SBI-993 was dissolved in a vehicle containing 2% DMSO, 2% Tween-80, and 96% water (pH9.0). Seven weeks after HFD feeding, mice were subcutaneously injected with SBI-993 (50 mg/kg mouse body weight) once daily for 7 days. Each group contains 6-10 mice and three independent experiments were conducted.
(§2) To determine if the effects conferred by SBI-477 observed in myocytes in culture are relevant in vivo, studies were conducted in C57BL/6 mice with diet-induced obesity. […] Mice were fed a 60% high fat diet (HFD) for 8 weeks resulting in significant weight gain (FIG. 6I). During the final week of HFD feeding, SBI-993 or vehicle control was administered as a once daily dose (50 mg/kg s.c.) for 7 days.

ARRDC4 = ARRDC4 expression by quantitative RT-PCR in human myotubes; format: cell-based; details: 24 hours
Method: FIGS. 4A-C show downregulation of TXNIP and ARRDC4 expression by SBI-477. (FIG. 4A) TXNIP and ARRDC4 mRNA levels as determined by quantitative RT-PCR in human myotubes treated with SBI-477 (10 μM) or DGAT1 inhibitor (DGATi, […]) for 24 hours in the absence or presence of 100 μM oleate (n=4). Expression is shown relative to vehicle/BSA treatment. (FIG. 4B) TXNIP gene expression following exposure to a dose range of SBI-477 for 24 hours (n=4). (FIG. 4C) Left, Effect of SBI-477 on TXNIP protein levels as determined by western blot analysis by SBI-477. Right, Quantitation of the TXNIP western blot data is shown (n=5). *p<0.05 vs. Vehicle/BSA control, †p<0.05 vs. Vehicle/oleate by one-way ANOVA with Bonferroni post hoc test. The data are shown as mean±SD.
Total RNA was isolated using RNeasy Mini Kit (Qiagen) according to the manufacturer's instructions. cDNA was synthesized using the Affinity Script cDNA Synthesis Kit (Stratagene) with 0.5 μg of total RNA. PCR reactions were performed in triplicate […] Roche LightCycler® 480 Instrument II) with specific primers for each gene.

[3] = system: C57BL/6 mice with diet-induced obesity; assay: Diet-induced obesity (60% high fat diet) mouse study; format: in vivo; details: HFD mice
Method: Following a 5 hour fast, a blood sample was obtained from the tail tip for the measurement of baseline glucose using a hand-held glucometer (Accu-Chek Aviva Plus, Roche). A bolus of glucose (1 g/kg) was then administered via i.p. injection. Blood samples were obtained at 5, 15, 30, 60 and 90 minutes following the glucose bolus for measurement of blood glucose. For detection of insulin signaling, mice were fasted for 5 hours on the last day of the study. Gastrocnemius skeletal muscle and liver tissues were harvested 10 minutes after an acute insulin administration (1.5 U/kg, i.p.) and immediately snap frozen. The tissue samples were homogenized in RIPA buffer containing 1% NP-40, 5 mM Na4P2O7, 1 mM EDTA, 20 mM NaF, 2 mM Na3VO4, 1× Complete protease inhibitor (Roche) and 1 mM phenylmethylsulfonyl fluoride. Western blot analysis for levels of phospho-Akt (S473) and total Akt was then performed.
as §1, §2

[4] = muscle and liver, 50 mg/kg s.c. 7 days

IC50 [1]: < 1 µM
concentration at 4 h [2]: 4.97 ± 0.97 µM
Food intake ([3]; data not shown): not due to reduced food intake
Compound: COc1ccc(-c2csc(NC(=O)c3ccc(NCC(=O)N4CCOCC4)cc3)n2)cc1 [Cpd. 66, N-(4-(4-methoxyphenyl)thiazol-2-yl)-4-((2-morpholino-2-oxoethyl)amino)benzamide]
Potency compared with SBI-477 (inhibition of triglyceride accumulation, FIG. 6H) (human skeletal myotubes): improved potency
ARRDC4 expression (ARRDC4): to a similar degree as SBI-477
Glucose tolerance (1 g/kg glucose, i.p.) ([3]; 50 mg/kg s.c. 7 days): improved glucose tolerance
Hepatic steatosis ([3]; 50 mg/kg s.c. 7 days): substantially ameliorated
TAG levels in skeletal muscle ([3]; 50 mg/kg s.c. 7 days): significantly reduced
Body weight compared to vehicle ([3]; 50 mg/kg s.c. once daily for 7 days): small but significant reduction
Occupation of ChREBP and MondoA on Txnip and Pklr gene promoters (ChIP) ([3]; liver, 1 week administration): reduced in liver
Insulin signaling (phosphorylated Akt S473) after acute insulin challenge ([3]; muscle and liver): improved insulin signaling
Expression of TAG synthesis and lipogenic genes [3, 4]: reduced the expression
Txnip and Arrdc4 expression [3, 4]: reduced Txnip and Arrdc4 expression
